“Also recorded” adds a separate entry of the source.
Assays:
C6 [1] = assay: [Ca2+]i measurement in C6; assay type: cell-based, rat
Description: (§1) (Statistical analysis it is shown in the inset. Values at the peak of the response have been analyzed using ANOVA followed by T-test, ** indicate P<0.01.).
(§2) Ca^2+ mobilization from ER was caused using an agonist acting via inositol trisphosphate elevation, mimicking physiological responses. In these conditions the dynamics of Ca^2+ transients were observe in these two cell lines. It appears evident that the plateau phase in C6 is consistently larger than in astrocytes.
(§3) Panel A: Challenge of astrocytes with ATP show the unchanged typical spike and plateau response. Panel B: In C6 an oscillatory pattern is readily detectable in response to treatment with TUN.
Tools and protocols have been developed to cleanly observe capacitative Ca^2+ entry (CCE), the phenomenon that allows the replenishment of intracellular Ca^2+ (ICS) stores and make quantitative and qualitative assessments. In particular, in astrocytes, capacitative Ca^2+ entry happens in absence of cytoplasmic Ca^2+ concentration ([Ca^2+]i) elevation (Grimaldi; 2006)(FIG. 1). […] The study was designed to investigate if there was a difference between astrocytes and glial cancer cells in this distinctive homeostatic pattern. The findings presented in this study, indicate that there are striking differences between glial cells and their cancer counterpart. The model utilizes rat cells but the observations extend and apply to human glioma cells as well. When the responses of normal astrocytes and C6 cells to thapsigargin (THAP), an agent able to block SERCA, therefore causing the release of Ca^2+ from the ER, were compared it was evident that C6 was more sensitive to the THAP (FIG. 2). However, the difference can be ascribed to one of many possibilities. […]
(§4) This phase is dependent on the balance of Ca^2+ influx triggered by store depletion and the reuptake in the ER due to SERCA activity. […] To investigate the role of influx triggered by ICS depletion, CCE was analyzed following THAP-induced depletion of ICS. […]

caspase 12 [2] = assay: Procaspase 12 cleavage in C6; assay type: cell-based, rat
Protocol: (§5) Cells were treated with the agents as indicated in the x axis. Subsequently cells were harvested and protein was extracted and then separated via SDS-PAGE and immunoblotted. The arrow highlights the 45 kDa band that results from cleavage of procaspase 12 and corresponding to the active caspase.
(§6) Thereafter, cells were harvested and protein extracted. Procaspase 12 band at 65 kDa was identified. In some of the treatments, the active product at 45 kDa was also detected. […] Conversely, in C6, higher GRP78 levels and the cell environment reflect significant caspase activation. […] Caspase activation in ERSR conditions was also confirmed with a TUNEL based apoptosis detection system in C6. C6 were treated with THAP for 24 hours and thereafter processed for TUNEL accordingly to manufacturer instructions. Staurosporin, a well known inducer of apoptosis in glial cells, was also included as a positive control. High resolution images of the experiments were acquired and image morphometric analysis was performed to determine quantitative parameters of the staining as previously described (Pascale et al., 2004, “Translocation of protein kinase C-betaII in astrocytes requires organized actin cytoskeleton and is not accompanied by synchronous RACK1 relocation.” Glia 46(2): 169-82). […]

GRP78 [3] = assay: GRP78 protein expression (SDS-PAGE, immunoblot) in astrocytes; assay type: cell-based, rat; conditions: for GRP78 levels in astrocytes after challenge: brief exposure (8 h), FIG. 11; for GRP78 protein expression in astrocytes: graded concentrations, THAP 24 hours, TUN 8 hours
Protocol: (§7) Astrocytes and C6 were exposed to graded concentration of THAP as indicated in the captions for 24 hours. Thereafter, protein were extracted and run on a SDS-PAGE and immunoblotted with an anti-GRP78 antibody. Filters were exposed to ECL and films were impressed and developed (Panel B). Films were digitalized using a high resolution scanner and analyzed used imageJ (NIH). Densitometric values were averaged and plotted in the graph (Panel A). Loading conditions were checked using GAPDH housekeeping gene.
(§8) Astrocytes and C6 were exposed to TUN for 8 hours at concentrations ranging from 1.25 μg/ml to 10 μg/ml. Proteins were extracted, separated on a SDS-PAGE and immunoblotted. Filters were exposed to ECL and used to impress films (Panel B). Developed films were subsequently digitized with a high resolution scanner and analyzed with the software ImageJ (NIH). Densitometric values were averaged and plotted in the graph (Panel A).
(§9) Cells were treated as specified in the graph labeling. It is evident that glioma cells have enhanced GRP78 expression than astrocytes regardless of the challenging agent. N.T.=untreated; D=DMSO; T=TUN; Th=THAP.

GRP78 [4] = assay: GRP78 protein expression (SDS-PAGE, immunoblot) in C6; assay type: cell-based, rat; conditions: for GRP78 expression in C6 after challenge: brief exposure (8 h), FIG. 11; for GRP78 protein expression in C6: graded concentrations, THAP 24 hours, TUN 8 hours
Protocol: as §7, §8, §9

caspase 12 [5] = assay: Procaspase 12 cleavage in astrocytes; assay type: cell-based, rat
Protocol: as §5, §6

astrocytes = assay: [Ca2+]i measurement in astrocytes; assay type: cell-based, rat
Description: as §1, §2, §3
Tools and protocols have been developed to cleanly observe capacitative Ca^2+ entry (CCE), the phenomenon that allows the replenishment of intracellular Ca^2+ (ICS) stores and make quantitative and qualitative assessments. In particular, in astrocytes, capacitative Ca^2+ entry happens in absence of cytoplasmic Ca^2+ concentration ([Ca^2+]i) elevation (Grimaldi; 2006)(FIG. 1). […]
as §4

C6 [6] = assay: TUNEL labeling in C6; assay type: cell-based, rat; conditions: C6, 24 hours
Protocol: C6 were plated on glass coverslips. Cells were fixed and stained accordingly to manufacturer instructions. Propidium staining of the nuclei was replaced by Hoechst included in the mounting media. Several images were acquired with a high resolution camera on a microscope equipped with a 10× long working distance dry lens and analyzed with powerful commercial software. Results were expressed in the graph as green labeled pixel counts. The images from the top to the bottom are respectively from N.T., DMSO, Thap 20 nM, Thap 200 nM, STS100 nM. The blue images reflect nuclear staining while the images on the right represent BRDU staining.
Thereafter, cells were harvested and protein extracted. Procaspase 12 band at 65 kDa was identified. In some of the treatments, the active product at 45 kDa was also detected. […] Conversely, in C6, higher GRP78 levels and the cell environment reflect significant caspase activation. […] Caspase activation in ERSR conditions was also confirmed with a TUNEL based apoptosis detection system in C6. […] High resolution images of the experiments were acquired and image morphometric analysis was performed to determine quantitative parameters of the staining as previously described (Pascale et al., 2004, “Translocation of protein kinase C-betaII in astrocytes requires organized actin cytoskeleton and is not accompanied by synchronous RACK1 relocation.” Glia 46(2): 169-82). […]

p53 = conditions: cited from earlier work
tumor cells = conditions: in vitro and in vivo; cited from earlier work
DNA = conditions: cited from earlier work

| Compound | [Ca2+]i elevation in C6 (C6 [1]; 2 μM THAP) | activation of caspase 12 (45 kDa active product) in C6 (caspase 12 [2]) | GRP78 levels in astrocytes after challenge (GRP78 [3]) | GRP78 protein expression in astrocytes (GRP78 [3]) | EC50 (GRP78 [4]; Rattus norvegicus, Astrocyte, stated in GRP78 expression experiment, astrocytes and C6, read-out: EC50 of the substance) [nM] | GRP78 expression in C6 after challenge (GRP78 [4]) | GRP78 protein expression in C6 (GRP78 [4]) | activation of caspase 12 in astrocytes (caspase 12 [5]) | [Ca2+]i elevation in astrocytes (astrocytes; 2 μM THAP) | TUNEL labeling (C6 [6]) | p53 activation and p53-dependent killing of tumor cell types (p53) | toxicity to tumor versus normal cells (tumor cells) | DNA damaging activity (DNA) | Ca2+ transients in C6 after TUN pretreatment (C6 [1]; challenge with ATP) | Ca2+ transients in astrocytes after TUN pretreatment (astrocytes; challenge with ATP) |
| --- | --- | --- | --- | --- | --- | --- | --- | --- | --- | --- | --- | --- | --- | --- | --- |
| C/C=C(/C)C(=O)O[C@H]1C(C)=C2[C@H]([C@@H]1OC(=O)CCCCCCC)[C@@](C)(OC(C)=O)C[C@H](OC(=O)CCC)[C@@]1(O)[C@H]2OC(=O)[C@@]1(C)O [THAP, thapsigargin] | significantly higher than in astrocytes | significant activation of caspase 12 | always significantly lower than levels reached in C6 and U87-MG | increased GRP78 expression | 2 to 5 | enhanced significantly | stronger elevation; also recorded: dramatically higher elevation of GRP78 | completely unresponsive | caused elevation of [Ca^2+]i | clear increase of TUNEL labeling |  |  |  |  |  |
| CCN(CC)CCCC(C)Nc1c2ccc(Cl)cc2nc2ccc(OC)cc12 (stereo not drawn) [quinacrine] |  |  |  |  |  |  |  |  |  |  | capable of p53 activation and p53-dependent killing | more toxic to tumor than to normal cells | not found to show DNA damaging activity |  |  |
| tunicamycin |  | significant activation of caspase 12 | always significantly lower than levels reached in C6 and U87-MG | concentration related elevation of GRP78 protein expression |  | enhanced significantly | concentration related elevation of GRP78 protein expression; also recorded: larger in C6 than in astrocytes at every concentration tested | completely unresponsive |  |  |  |  |  | appearance of [Ca^2+]i oscillations at high frequency and high amplitude | transients were not changed |

Source: patent US20110060000A1, “ACRIDINE ANALOGS IN THE TREATMENT OF GLIOMAS” (priority 2009, published 2011)
